ChEMBL document CHEMBL5715949, “Discovery of a selective irreversible BMX inhibitor for prostate cancer” (ACS Chem Biol, 2013)
Calls of active or inactive are those of the source. The rule behind the calls is not given here.

Columns and labels:
[1] = target: Serine/threonine-protein kinase mTOR (Homo sapiens) (UniProt P42345); assay: Inhibition of MTOR (unknown origin) assessed as remaining activity at 1 uM by Kinome scan method relative to control
[2] = target: Serine/threonine-protein kinase Nek3 (Homo sapiens) (UniProt P51956); assay: Inhibition of NEK3 (unknown origin) assessed as remaining activity at 1 uM by Kinome scan method relative to control
Serine/threonine-protein kinase Nek3 (Homo sapiens), sequence (P51956 whole entry, canonical isoform): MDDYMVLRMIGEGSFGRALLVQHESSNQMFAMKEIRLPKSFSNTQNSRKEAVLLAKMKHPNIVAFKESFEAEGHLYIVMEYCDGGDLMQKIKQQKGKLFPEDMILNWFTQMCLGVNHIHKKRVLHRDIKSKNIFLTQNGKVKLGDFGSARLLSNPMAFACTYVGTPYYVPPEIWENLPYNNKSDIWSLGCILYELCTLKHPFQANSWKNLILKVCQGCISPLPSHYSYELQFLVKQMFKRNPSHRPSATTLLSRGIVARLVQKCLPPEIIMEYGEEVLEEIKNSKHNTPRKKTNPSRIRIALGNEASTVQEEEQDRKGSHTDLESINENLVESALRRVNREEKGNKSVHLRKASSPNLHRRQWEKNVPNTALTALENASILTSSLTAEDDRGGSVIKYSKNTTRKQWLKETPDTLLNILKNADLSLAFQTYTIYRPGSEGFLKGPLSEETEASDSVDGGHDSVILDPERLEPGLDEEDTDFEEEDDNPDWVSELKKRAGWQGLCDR

[3] = target: Phosphorylase b kinase gamma catalytic chain, skeletal muscle/heart isoform (Homo sapiens) (UniProt Q16816); assay: Inhibition of PHKG1 (unknown origin) assessed as remaining activity at 1 uM by Kinome scan method relative to control
[4] = target: Serine/threonine-protein kinase PAK 3 (Homo sapiens) (UniProt O75914); assay: Inhibition of PAK3 (unknown origin) assessed as remaining activity at 1 uM by Kinome scan method relative to control
[5] = Cytotoxicity against mouse BaF3 cells assessed growth inhibition incubated for 2 to 5 days by CellTiter-Glo assay; format: toxicity, cell-based; conditions: time 2-5 day
[6] = tested on: Tyrosine-protein kinase ABL1 (Homo sapiens), P00519 [E255K]; assay: Inhibition of phosphorylated ABL1 E255K mutant (unknown origin) assessed as remaining activity at 1 uM by Kinome scan method relative to control
Tyrosine-protein kinase ABL1 (Homo sapiens), P00519 [E255K], sequence (P00519 whole entry E255K): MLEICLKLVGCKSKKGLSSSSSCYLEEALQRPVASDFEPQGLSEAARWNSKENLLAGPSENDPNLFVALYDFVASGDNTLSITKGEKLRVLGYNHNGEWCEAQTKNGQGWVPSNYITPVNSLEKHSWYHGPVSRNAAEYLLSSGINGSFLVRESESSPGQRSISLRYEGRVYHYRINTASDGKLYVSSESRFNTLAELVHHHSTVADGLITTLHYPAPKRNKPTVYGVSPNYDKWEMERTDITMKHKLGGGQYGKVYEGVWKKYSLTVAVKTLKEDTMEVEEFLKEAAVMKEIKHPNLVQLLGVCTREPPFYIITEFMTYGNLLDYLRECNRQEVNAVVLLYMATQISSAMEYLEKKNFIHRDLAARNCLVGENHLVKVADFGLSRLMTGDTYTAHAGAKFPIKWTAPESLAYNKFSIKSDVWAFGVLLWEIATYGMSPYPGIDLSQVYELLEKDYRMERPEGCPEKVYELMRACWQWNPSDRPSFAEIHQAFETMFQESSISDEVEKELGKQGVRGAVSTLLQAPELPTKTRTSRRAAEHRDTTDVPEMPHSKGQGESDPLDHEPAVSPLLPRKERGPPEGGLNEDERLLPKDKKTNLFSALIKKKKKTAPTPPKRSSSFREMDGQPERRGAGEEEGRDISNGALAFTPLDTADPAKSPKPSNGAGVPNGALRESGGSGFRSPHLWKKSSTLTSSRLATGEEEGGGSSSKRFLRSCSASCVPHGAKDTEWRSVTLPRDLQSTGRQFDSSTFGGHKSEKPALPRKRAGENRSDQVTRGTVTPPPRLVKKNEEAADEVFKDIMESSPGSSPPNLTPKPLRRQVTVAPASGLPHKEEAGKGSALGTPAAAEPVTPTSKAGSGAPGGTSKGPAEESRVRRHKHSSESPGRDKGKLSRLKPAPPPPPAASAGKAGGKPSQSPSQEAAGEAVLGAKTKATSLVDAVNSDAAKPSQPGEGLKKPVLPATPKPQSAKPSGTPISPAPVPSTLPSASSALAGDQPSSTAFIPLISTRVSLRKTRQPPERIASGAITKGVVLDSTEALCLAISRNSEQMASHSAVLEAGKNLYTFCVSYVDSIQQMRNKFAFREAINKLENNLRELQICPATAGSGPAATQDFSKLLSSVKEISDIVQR

[7] = target: 5'-AMP-activated protein kinase catalytic subunit alpha-2 (Homo sapiens) (UniProt P54646); assay: Inhibition of AMPK-alpha2 (unknown origin) assessed as remaining activity at 1 uM by Kinome scan method relative to control
[8] = target: Calcium/calmodulin-dependent protein kinase type II subunit alpha (Homo sapiens) (UniProt Q9UQM7); assay: Inhibition of CAMK2A (unknown origin) assessed as remaining activity at 1 uM by Kinome scan method relative to control
[9] = target: Dual specificity protein kinase CLK4 (Homo sapiens) (UniProt Q9HAZ1); assay: Inhibition of CLK4 (unknown origin) assessed as remaining activity at 1 uM by Kinome scan method relative to control
[10] = target: Casein kinase II subunit alpha (Homo sapiens) (UniProt P68400); assay: Inhibition of CSNK2A1 (unknown origin) assessed as remaining activity at 1 uM by Kinome scan method relative to control
[11] = target: Death-associated protein kinase 1 (Homo sapiens) (UniProt P53355); assay: Inhibition of DAPK1 (unknown origin) assessed as remaining activity at 1 uM by Kinome scan method relative to control
Death-associated protein kinase 1 (Homo sapiens), sequence (P53355 whole entry, looked up): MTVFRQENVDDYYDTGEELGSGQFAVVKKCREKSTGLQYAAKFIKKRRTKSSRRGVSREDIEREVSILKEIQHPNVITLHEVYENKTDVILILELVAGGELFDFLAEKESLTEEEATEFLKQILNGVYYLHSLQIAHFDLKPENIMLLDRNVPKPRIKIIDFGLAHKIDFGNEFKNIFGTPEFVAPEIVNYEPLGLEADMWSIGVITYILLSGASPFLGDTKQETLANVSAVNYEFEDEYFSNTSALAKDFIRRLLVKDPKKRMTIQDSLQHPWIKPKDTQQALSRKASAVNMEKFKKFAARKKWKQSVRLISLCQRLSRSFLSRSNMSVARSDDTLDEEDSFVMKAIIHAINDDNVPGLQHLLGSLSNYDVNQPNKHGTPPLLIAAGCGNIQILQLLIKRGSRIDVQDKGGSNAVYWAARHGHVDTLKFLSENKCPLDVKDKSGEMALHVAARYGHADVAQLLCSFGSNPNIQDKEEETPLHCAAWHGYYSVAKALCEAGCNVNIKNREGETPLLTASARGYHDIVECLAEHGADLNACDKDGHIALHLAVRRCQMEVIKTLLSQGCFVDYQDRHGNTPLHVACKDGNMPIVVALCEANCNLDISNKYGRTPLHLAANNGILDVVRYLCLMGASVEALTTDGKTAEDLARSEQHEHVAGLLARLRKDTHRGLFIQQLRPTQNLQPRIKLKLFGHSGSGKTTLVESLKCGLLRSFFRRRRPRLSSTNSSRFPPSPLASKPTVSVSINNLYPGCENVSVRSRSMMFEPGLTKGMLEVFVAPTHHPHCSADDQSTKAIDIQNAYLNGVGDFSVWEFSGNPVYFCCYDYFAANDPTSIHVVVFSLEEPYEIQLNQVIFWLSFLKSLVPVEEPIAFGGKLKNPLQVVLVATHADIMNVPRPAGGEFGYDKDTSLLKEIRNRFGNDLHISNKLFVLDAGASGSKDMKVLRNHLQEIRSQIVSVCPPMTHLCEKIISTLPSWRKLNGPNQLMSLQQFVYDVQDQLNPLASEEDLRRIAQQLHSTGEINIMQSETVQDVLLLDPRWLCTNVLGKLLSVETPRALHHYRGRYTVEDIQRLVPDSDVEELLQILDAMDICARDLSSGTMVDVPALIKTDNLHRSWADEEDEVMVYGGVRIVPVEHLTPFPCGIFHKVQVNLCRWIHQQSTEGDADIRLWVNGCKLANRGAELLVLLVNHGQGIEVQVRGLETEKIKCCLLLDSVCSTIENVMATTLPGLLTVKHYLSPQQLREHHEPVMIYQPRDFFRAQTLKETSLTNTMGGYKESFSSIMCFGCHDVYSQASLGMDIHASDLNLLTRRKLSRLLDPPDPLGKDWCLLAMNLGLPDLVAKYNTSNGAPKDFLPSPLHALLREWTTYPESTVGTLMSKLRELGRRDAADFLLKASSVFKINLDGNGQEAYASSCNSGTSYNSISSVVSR

[12] = target: Ephrin type-A receptor 6 (Homo sapiens) (UniProt Q9UF33); assay: Inhibition of EPHA6 (unknown origin) assessed as remaining activity at 1 uM by Kinome scan method relative to control
[13] = target: Mitogen-activated protein kinase 1 (Homo sapiens) (UniProt P28482); assay: Inhibition of ERK2 (unknown origin) assessed as remaining activity at 1 uM by Kinome scan method relative to control
[14] = target: Fibroblast growth factor receptor 2 (Homo sapiens) (UniProt P21802); assay: Inhibition of FGFR2 (unknown origin) assessed as remaining activity at 1 uM by Kinome scan method relative to control
[15] = target: Receptor-type tyrosine-protein kinase FLT3 (Homo sapiens) (UniProt P36888); assay: Inhibition of FLT3 (unknown origin) assessed as remaining activity at 1 uM by Kinome scan method relative to control
[16] = target: Rhodopsin kinase GRK7 (Homo sapiens) (UniProt Q8WTQ7); assay: Inhibition of GRK7 (unknown origin) assessed as remaining activity at 1 uM by Kinome scan method relative to control
[17] = target: Tyrosine-protein kinase JAK2 (Homo sapiens) (UniProt O60674); assay: Inhibition of JAK2 JH1 domain (unknown origin) assessed as remaining activity at 1 uM by Kinome scan method relative to control
[18] = target: Mitogen-activated protein kinase kinase kinase 15 (Homo sapiens) (UniProt Q6ZN16); assay: Inhibition of MAP3K15 (unknown origin) assessed as remaining activity at 1 uM by Kinome scan method relative to control
Mitogen-activated protein kinase kinase kinase 15 (Homo sapiens), sequence (Q6ZN16 whole entry): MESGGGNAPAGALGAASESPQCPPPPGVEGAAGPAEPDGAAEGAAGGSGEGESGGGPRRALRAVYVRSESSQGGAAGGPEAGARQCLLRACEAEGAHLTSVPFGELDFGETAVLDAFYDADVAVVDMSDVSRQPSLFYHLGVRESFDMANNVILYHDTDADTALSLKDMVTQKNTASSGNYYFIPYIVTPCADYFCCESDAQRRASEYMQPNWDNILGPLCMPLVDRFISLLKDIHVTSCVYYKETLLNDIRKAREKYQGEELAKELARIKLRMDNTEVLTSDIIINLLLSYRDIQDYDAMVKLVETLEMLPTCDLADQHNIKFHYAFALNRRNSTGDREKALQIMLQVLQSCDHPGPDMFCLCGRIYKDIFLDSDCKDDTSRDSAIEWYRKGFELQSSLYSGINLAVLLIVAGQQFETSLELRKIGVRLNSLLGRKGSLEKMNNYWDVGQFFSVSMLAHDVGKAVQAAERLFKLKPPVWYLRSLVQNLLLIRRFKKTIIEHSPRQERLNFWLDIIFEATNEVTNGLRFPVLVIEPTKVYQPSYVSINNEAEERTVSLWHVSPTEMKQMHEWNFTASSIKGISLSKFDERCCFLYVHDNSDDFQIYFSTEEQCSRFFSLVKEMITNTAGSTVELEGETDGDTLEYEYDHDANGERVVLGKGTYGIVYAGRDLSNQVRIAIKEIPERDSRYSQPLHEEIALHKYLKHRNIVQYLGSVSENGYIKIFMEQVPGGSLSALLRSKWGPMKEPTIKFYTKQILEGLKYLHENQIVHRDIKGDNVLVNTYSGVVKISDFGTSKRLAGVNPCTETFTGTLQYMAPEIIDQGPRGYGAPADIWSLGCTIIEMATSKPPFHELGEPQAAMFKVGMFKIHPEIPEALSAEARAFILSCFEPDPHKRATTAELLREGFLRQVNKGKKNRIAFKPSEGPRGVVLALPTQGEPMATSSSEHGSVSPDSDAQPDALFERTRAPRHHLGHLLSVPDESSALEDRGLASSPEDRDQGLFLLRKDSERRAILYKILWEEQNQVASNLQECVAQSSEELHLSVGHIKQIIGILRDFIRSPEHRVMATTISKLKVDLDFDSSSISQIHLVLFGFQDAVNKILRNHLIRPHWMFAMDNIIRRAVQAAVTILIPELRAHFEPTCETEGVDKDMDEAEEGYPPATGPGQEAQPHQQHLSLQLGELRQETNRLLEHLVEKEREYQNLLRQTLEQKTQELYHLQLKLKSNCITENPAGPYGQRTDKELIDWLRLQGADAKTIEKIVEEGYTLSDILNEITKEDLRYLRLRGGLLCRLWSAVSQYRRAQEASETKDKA

[19] = target: Serine/threonine-protein kinase MARK2 (Homo sapiens) (UniProt Q7KZI7); assay: Inhibition of MARK2 (unknown origin) assessed as remaining activity at 1 uM by Kinome scan method relative to control
[20] = target: Dual specificity mitogen-activated protein kinase kinase 2 (Homo sapiens) (UniProt P36507); assay: Inhibition of MEK2 (unknown origin) assessed as remaining activity at 1 uM by Kinome scan method relative to control
[21] = tested on: Hepatocyte growth factor receptor (Homo sapiens), P08581 [M1250T]; assay: Inhibition of MET M1250T mutant (unknown origin) assessed as remaining activity at 1 uM by Kinome scan method relative to control
[22] = target: Dual specificity mitogen-activated protein kinase kinase 7 (Homo sapiens) (UniProt O14733); assay: Inhibition of MKK7 (unknown origin) assessed as remaining activity at 1 uM by Kinome scan method relative to control
[23] = target: Protein kinase C delta type (Homo sapiens) (UniProt Q05655); assay: Inhibition of PRKCD (unknown origin) assessed as remaining activity at 1 uM by Kinome scan method relative to control
[24] = target: Protein kinase C eta type (Homo sapiens) (UniProt P24723); assay: Inhibition of PRKCH (unknown origin) assessed as remaining activity at 1 uM by Kinome scan method relative to control
[25] = target: Protein kinase C iota type (Homo sapiens) (UniProt P41743); assay: Inhibition of PRKCI (unknown origin) assessed as remaining activity at 1 uM by Kinome scan method relative to control
Protein kinase C iota type (Homo sapiens), sequence (P41743 whole entry): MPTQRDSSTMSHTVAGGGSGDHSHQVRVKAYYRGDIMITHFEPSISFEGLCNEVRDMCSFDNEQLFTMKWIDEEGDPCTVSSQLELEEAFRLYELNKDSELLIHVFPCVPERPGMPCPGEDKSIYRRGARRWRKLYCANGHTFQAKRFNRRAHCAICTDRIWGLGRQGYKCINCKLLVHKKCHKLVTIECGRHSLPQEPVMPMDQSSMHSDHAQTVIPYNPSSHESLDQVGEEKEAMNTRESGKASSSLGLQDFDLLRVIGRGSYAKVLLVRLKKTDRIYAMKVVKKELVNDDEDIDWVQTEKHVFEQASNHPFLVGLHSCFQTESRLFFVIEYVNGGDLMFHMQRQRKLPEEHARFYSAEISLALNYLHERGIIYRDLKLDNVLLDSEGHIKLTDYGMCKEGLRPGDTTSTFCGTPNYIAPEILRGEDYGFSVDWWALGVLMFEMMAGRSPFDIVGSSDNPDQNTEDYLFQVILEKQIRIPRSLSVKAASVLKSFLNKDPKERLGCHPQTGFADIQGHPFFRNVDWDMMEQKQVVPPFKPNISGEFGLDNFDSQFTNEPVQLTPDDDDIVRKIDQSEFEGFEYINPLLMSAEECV

[26] = target: Serine/threonine-protein kinase D2 (Homo sapiens) (UniProt Q9BZL6); assay: Inhibition of PRKD2 (unknown origin) assessed as remaining activity at 1 uM by Kinome scan method relative to control
[27] = target: Serine/threonine-protein kinase SBK1 (Homo sapiens) (UniProt Q52WX2); assay: Inhibition of SBK1 (unknown origin) assessed as remaining activity at 1 uM by Kinome scan method relative to control
[28] = target: Serine/threonine-protein kinase ULK3 (Homo sapiens) (UniProt Q6PHR2); assay: Inhibition of ULK3 (unknown origin) assessed as remaining activity at 1 uM by Kinome scan method relative to control
[29] = tested on: RV-1; assay: Induction of apoptosis in human RV-1 cells assessed as increase in cleaved caspase-3 protein expression at 5 uM incubated for 3 days by immunostaining analysis; format: functional, cell-based; conditions: time 3.0 day
[30] = tested on: RV-1; assay: Antiproliferative activity against human RV-1 cells assessed as reduction in cell viability at 500 to 2500 nM incubated for 5 days in presence of Torin2 by CellTiter-Glo assay; format: functional, cell-based; conditions: dose 500-2500 nM, time 5.0 day
[31] = tested on: RV-1; assay: Antiproliferative activity against human RV-1 cells assessed as reduction in cell viability at 500 to 2500 nM incubated for 5 days in presence of erlotinib by CellTiter-Glo assay; format: functional, cell-based; conditions: dose 500-2500 nM, time 5.0 day
[32] = Inhibition of PI3K/AKT/mTOR signalling pathway in human RV-1 cells assessed as decrease in 4EBP phosphorylation at T37/46 residue at 2.5 uM incubated for 5 days in presence of MK2206 by immunoblot analysis; format: cell-based; conditions: time 5.0 day

C=CC(=O)Nc1cc(-n2c(=O)ccc3cnc4ccc(-c5ccc(NS(C)(=O)=O)cc5)cc4c32)ccc1C gave an Activity [1] of 45%, an Activity [2] of 98% and an Activity [3] of 86%. The Activity [4] was 92%, the GI50 [5] was over 10 µM and the Activity [6] was 63%. The Activity [7] was 92%, the Activity [8] was 98% and the Activity [9] was 99%. The Activity [10] was 84%, the Activity [11] was 96% and the Activity [12] was 96%. The Activity [13] was 94%, the Activity [14] was 96% and the Activity [15] was 80%. The Activity [16] was 75%, the Activity [17] was 86% and the Activity [18] was 70%. The Activity [19] was 94%, the Activity [20] was 96% and the Activity [21] was 80%. It also gave an Activity [22] of 49%, an Activity [23] of 41% and an Activity [24] of 98%. For the same compound, the Activity [25] was 84%, the Activity [26] was 87% and the Activity [27] was 4.6%. The Activity [28] was 80%, the Activity [29] was “Active” and the Activity [30] was “Active”. For the same compound, the Activity [31] was “Active” and the inhibition [32] was “Active”.
